These are literature values, as cited in US20130142849A1 (LUPIN LIMITED, priority 2010, published 2013).

Like-named read-outs stand apart in the source and are kept apart here.

In the case of `CCCCc1oc2ccc(NS(C)(=O)=O)cc2c1C(=O)c1ccc(OCCCN(CCCC)CCCC)cc1.Cl` [Dronedarone, N-{2-butyl-3-[4-(3-dibutylaminopropoxy)benzoyl]benzofuran-5-yl}methane sulfonamide, hydrochloride], the absolute oral bioavailability result is “approx. 15%” (administered with a high fat meal) and 4% (fasting).
